Measured values: article PMC6193938, “Characterization of a novel AICARFT inhibitor which potently elevates ZMP and has anti-tumor activity in murine models” (Scientific Reports, 2018)
Where two headings read alike, the source gives them in different places.

Assays:
TBK1 = target: T1, TBK1 (Homo sapiens, UniProt Q9UHD2); assay: CEREP protein kinase assay; assay type: biochemical
T1 construct: purchased CEREP Panlabs (Eurofins)
T1 sequence (Q9UHD2 1-729): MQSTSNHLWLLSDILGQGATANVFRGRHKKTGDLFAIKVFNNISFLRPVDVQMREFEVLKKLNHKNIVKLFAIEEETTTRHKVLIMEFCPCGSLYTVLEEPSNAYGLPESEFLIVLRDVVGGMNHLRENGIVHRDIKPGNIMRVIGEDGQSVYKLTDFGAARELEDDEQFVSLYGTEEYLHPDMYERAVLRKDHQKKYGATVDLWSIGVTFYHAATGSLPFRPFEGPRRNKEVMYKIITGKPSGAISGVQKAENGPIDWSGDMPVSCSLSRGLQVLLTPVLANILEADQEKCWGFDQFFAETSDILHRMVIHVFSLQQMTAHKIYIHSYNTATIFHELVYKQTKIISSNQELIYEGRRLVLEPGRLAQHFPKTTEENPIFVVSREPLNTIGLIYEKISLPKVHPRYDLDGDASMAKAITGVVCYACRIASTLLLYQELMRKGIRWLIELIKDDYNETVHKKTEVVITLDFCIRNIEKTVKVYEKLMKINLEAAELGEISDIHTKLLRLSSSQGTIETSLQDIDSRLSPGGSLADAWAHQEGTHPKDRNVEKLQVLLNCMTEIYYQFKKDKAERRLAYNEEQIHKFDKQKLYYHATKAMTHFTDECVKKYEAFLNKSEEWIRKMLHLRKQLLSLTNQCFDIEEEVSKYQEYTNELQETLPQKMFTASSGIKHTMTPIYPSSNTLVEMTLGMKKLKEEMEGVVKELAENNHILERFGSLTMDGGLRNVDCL

CDK1 = target: T2, CDK1 (Homo sapiens, UniProt P06493); assay: CEREP protein kinase assay; assay type: biochemical
T2 construct: purchased CEREP Panlabs (Eurofins)
T2 sequence (P06493 whole entry): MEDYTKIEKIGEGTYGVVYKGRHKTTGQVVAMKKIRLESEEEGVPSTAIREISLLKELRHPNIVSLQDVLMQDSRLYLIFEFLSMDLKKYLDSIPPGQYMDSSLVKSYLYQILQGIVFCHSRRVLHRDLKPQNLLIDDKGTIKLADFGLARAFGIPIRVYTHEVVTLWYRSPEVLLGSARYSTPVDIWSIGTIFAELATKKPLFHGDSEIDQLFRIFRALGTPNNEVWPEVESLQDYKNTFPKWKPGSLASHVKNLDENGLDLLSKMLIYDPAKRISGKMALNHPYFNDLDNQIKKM
T2 sequence (P14635 whole entry partner): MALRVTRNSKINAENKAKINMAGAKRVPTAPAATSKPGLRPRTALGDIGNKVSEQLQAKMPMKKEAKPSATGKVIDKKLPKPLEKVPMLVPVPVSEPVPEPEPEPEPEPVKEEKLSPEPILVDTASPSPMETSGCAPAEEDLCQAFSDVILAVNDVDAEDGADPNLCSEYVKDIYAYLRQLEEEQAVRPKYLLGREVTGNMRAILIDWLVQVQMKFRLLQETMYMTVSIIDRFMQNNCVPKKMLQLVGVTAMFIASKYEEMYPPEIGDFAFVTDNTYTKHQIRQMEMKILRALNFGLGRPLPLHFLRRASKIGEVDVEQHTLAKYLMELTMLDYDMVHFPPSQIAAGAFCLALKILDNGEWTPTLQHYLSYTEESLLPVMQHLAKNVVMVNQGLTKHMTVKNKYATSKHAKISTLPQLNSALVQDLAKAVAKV

PDGFRa = target: T3, PDGFRa (Homo sapiens, UniProt P16234); assay: CEREP protein kinase assay; assay type: biochemical
T3 construct: purchased CEREP Panlabs (Eurofins)
T3 sequence (P16234 24-1089): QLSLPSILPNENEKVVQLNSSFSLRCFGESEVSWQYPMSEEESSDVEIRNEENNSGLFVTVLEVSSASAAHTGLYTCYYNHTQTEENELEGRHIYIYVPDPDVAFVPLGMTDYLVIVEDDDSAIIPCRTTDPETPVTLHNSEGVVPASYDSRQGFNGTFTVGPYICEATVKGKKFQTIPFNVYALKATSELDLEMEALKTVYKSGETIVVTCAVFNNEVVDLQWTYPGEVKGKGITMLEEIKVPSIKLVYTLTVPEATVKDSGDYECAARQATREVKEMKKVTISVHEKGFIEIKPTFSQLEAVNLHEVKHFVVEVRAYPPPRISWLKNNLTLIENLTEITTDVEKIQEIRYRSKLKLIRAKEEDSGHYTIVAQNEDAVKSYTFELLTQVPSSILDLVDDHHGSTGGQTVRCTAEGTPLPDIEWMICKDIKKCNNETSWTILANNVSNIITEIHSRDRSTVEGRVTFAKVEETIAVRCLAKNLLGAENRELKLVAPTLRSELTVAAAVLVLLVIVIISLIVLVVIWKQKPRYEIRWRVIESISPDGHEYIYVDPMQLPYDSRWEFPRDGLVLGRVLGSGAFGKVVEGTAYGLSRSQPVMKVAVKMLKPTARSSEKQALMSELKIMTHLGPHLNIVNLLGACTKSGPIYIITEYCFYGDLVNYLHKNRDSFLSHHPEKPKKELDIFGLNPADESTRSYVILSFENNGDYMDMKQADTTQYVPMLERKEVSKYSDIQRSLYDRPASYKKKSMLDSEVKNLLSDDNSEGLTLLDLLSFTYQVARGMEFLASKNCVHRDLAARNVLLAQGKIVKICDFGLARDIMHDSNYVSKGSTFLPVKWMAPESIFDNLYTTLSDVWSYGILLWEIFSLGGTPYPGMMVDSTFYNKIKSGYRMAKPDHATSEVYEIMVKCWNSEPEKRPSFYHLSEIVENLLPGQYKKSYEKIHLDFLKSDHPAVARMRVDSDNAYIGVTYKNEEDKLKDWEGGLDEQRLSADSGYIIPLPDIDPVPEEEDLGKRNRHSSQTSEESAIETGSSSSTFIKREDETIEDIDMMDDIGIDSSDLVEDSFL

NCI-H460 (lung) = assay: Low folate & high folate in vitro proliferation assay (Alamar Blue); assay type: cell-based, human; conditions: for GI50: Homo sapiens
Experimental: (§1) Cells lines were acquired from cell banks, see supplemental material, grown using the cell banks recommended culture conditions (Supplemental Table 3). In some experiments noted “low folate” the cells were washed and grown in folate free RPMI-1640 media (Gibco #27016-021) supplemented with 5 ml 1 M Hepes, 5 ml 100 mM Na pyruvate, 2.5 mg/ml glucose and 10% defined FBS (Hyclone #SH30070) per 500 mL media for 5–7 days to deplete intracellular folate levels prior to the start of the experiment. Where noted, cells were maintained in complete “high folate” RPMI-1640 media (ATCC #30-2001) with 10% defined FBS to contrast with the low folate conditions.
Cells were cultured using recommended culture conditions unless noted otherwise (Supplemental Table 3). Cells were plated, dosed with compound and incubated at 37 °C for approximately 2 doubling times as determined for each cell line. Cell Titer Glo (Promega) assay was used to measure proliferation according to manufacturer’s recommendations by measuring luminescence with Flexstation3 (Molecular Devices) with 500 ms integration time. […] The % response was fit to a four-parameter logistic equation using ACTIVITYBASE 4.0 to determine the absolute IC50 values.
For a limited number of cell lines, compound dosing was performed under high or low folate conditions with cell viability being determined with Alamar Blue rather than an ATP dependent assay. Cells were plated and treated as described above. Proliferation was measured using Alamar Blue Cell Viability Reagent (Invitrogen), and read after approximately 1.5–4 hours incubation at 37 °C on the Envision plate reader (Perkin Elmer) with excitation at 570 nm and emission at 585 nm. The % inhibition for each sample was calculated and fit as described above.

NCI-H1993 (lung) = assay: MS detection of ZMP in cultured cells; assay type: cell-based; conditions: Homo sapiens, low folate RPMI media, 16 hours
Experimental: as §1
(§2) ZMP was detected in cultured cells via mass spec analysis. Cells were plated in 96-well plates at 25,000 cells per well in 100 µL with either high or low folate RPMI media and incubated overnight at 37 °C with 5% CO2. Cells were treated with inhibitor compounds for 16 hours, 0.5% DMSO final concentration. Growth media was decanted and cells were lysed for 10 min at room temperature with 50 µL per well of 1x Sure Fire Lysis buffer (Perkin Elmer, SureFire kit component). Aliquots (40 µL) of standard or sample were combined in a deep 96-well plate with 160 µL of internal standard solution containing ^13C5-ZMP (custom synthesis) and ^13C5-AICAr (custom synthesis) at 100 ng/mL in 40 mM ammonium acetate, pH 4. 400 µL of dichloromethane was added to each sample. Samples were sealed, vortexed for 5 minutes, and placed in the refrigerator for at least 30 minutes. The samples were centrifuged at 4 °C for 10 minutes at 16,600 g. 75 µL of the aqueous layer were transferred to a clean 96-well plate and seal prior to analysis.
(§3) The LC-MS method utilizes a Shimadzu Prominence 20 A HPLC system connected to an AB Sciex 5500™ or an AB Sciex 6500™ triple quadrupole mass spectrometer. Extracted samples were separated using a Thermo Hypercarb™ Javelin guard column (2.1 × 20 mm, 5 µm) with an injection volume of 15 µL and a flow rate of 1 mL/minute.
(§4) ZMP, AICAr and dUMP were detected using positive ion TurboIonSpray® multiple reaction monitoring mode and the data were processed with AB Sciex MultiQuant™. Back-calculated ZMP concentrations were fit to a four-parameter logistic equation using ACTIVITYBASE 4.0 to determine EC50 values relative to the maximum observed metabolite levels.

SW620 (colon) = assay: MS detection of ZMP in cultured cells; assay type: cell-based; conditions: Homo sapiens, 16 hours
Experimental: as §1, §2, §3, §4

NCI-H1437 (lung) = assay: MS detection of ZMP in cultured cells; assay type: cell-based; conditions: Homo sapiens, 16 hours
Experimental: as §1, §2, §3, §4

A549 (lung) = assay: MS detection of ZMP in cultured cells; assay type: cell-based; conditions: Homo sapiens, 16 hours
Experimental: as §1, §2, §3, §4

SNU-16 (gastric) = assay: MS detection of ZMP in cultured cells; assay type: cell-based; conditions: Homo sapiens, 16 hours
Experimental: as §1, §2, §3, §4

MIA PaCa-2 (pancreas) = assay: MS detection of ZMP in cultured cells; assay type: cell-based; conditions: Homo sapiens, 16 hours
Experimental: as §1, §2, §3, §4

HCT 116 (colon) = assay: MS detection of ZMP in cultured cells; assay type: cell-based; conditions: Homo sapiens, 16 hours
Experimental: as §1, §2, §3, §4

NCI-H1155 (lung) = assay: MS detection of ZMP in cultured cells; assay type: cell-based; conditions: Homo sapiens, 16 hours
Experimental: as §1, §2, §3, §4

[1] = RPMI media, read-out: ZMP EC50 Regular folate
[2] = low folate RPMI media, read-out: ZMP EC50 Low folate

## O=c1[nH]ccc2cc(F)c(NS(=O)(=O)c3ccc(N4CC[C@@H](O)C4)s3)cc12 [LSN3213128, N-(6-Fluoro-1-oxo-1,2-dihydroisoquinolin-7-yl)-5-[(3R)-3-hydroxypyrrolidin-1-yl]thiophene-2-sulfonamide]
TBK1; @ 0.2 uM
  inhibition at 0.2 µM: -3.62%
TBK1; @ 2 uM
  inhibition at 2 µM: 13.1%
TBK1; @ 20 uM
  inhibition at 20 µM: 11%
CDK1; @ 0.2 uM
  inhibition at 0.2 µM: -4.14%
CDK1; @ 2 uM
  inhibition at 2 µM: 4.5%
CDK1; @ 20 uM
  inhibition at 20 µM: 5.99%
PDGFRa; @ 0.2 uM
  inhibition at 0.2 µM: -10.5%
PDGFRa; @ 2 uM
  inhibition at 2 µM: 12.3%
PDGFRa; @ 20 uM
  inhibition at 20 µM: 44.9%
NCI-H460 (lung); 32 μM hypoxanthine
  anti-proliferative effects on hypoxanthine supplementation: completely rescued
NCI-H460 (lung); RPMI media, read-out: Alamar Blue GI50 Regular folate
  GI50: 3.47 ± 2.09 µM
NCI-H460 (lung); low folate RPMI media, read-out: Alamar Blue GI50 Low folate
  GI50: 0.0164 ± 0.0051 µM
NCI-H1993 (lung)
  EC50: 0.0071 µM
SW620 (colon); SW-620, RPMI media, read-out: ZMP EC50 Regular folate
  EC50: 0.6 µM
SW620 (colon); SW-620, low folate RPMI media, read-out: ZMP EC50 Low folate
  EC50: 0.0043 ± 0.0009 µM
NCI-H1437 (lung); [1]
  EC50: 0.62 ± 0.354 µM
NCI-H1437 (lung); [2]
  EC50: 0.0046 µM
A549 (lung); [1]
  EC50: 3.1 µM
A549 (lung); [2]
  EC50: 0.01 µM
SNU-16 (gastric); [1]
  EC50: 2.5 µM
SNU-16 (gastric); [2]
  EC50: 0.002 µM
MIA PaCa-2 (pancreas); [1]
  EC50: 1.7 µM
MIA PaCa-2 (pancreas); [2]
  EC50: 0.0042 µM
HCT 116 (colon); [1]
  EC50: 0.369 ± 0.044 µM
HCT 116 (colon); [2]
  EC50: 0.0027 ± 0.0033 µM
NCI-H1155 (lung); [1]
  EC50: 0.38 µM
NCI-H1155 (lung); [2]
  EC50: 0.0023 µM
